Laboratory results: paper PMC10840383, “Clinical features, functional consequences, and rescue pharmacology of missense GRID1 and GRID2 human variants” (Human Molecular Genetics, 2023)
Where a chain is given by its changes, count along the chain named.

How the values were obtained:
Format in all cases: cell-based
Details in all cases: positive = increase, negative = decrease of activity
GluD2-S646P = target: T1, GluD2-S646P (Rattus norvegicus, UniProt Q63226, S646P); assay: TEVC of constitutive current, Xenopus oocytes expressing GluD2-S646P
T1 construct: expressed in transfected cells; host or cells: Xenopus laevis oocytes injected with cRNA
T1 sequence (Q63226 24-1007 S646P): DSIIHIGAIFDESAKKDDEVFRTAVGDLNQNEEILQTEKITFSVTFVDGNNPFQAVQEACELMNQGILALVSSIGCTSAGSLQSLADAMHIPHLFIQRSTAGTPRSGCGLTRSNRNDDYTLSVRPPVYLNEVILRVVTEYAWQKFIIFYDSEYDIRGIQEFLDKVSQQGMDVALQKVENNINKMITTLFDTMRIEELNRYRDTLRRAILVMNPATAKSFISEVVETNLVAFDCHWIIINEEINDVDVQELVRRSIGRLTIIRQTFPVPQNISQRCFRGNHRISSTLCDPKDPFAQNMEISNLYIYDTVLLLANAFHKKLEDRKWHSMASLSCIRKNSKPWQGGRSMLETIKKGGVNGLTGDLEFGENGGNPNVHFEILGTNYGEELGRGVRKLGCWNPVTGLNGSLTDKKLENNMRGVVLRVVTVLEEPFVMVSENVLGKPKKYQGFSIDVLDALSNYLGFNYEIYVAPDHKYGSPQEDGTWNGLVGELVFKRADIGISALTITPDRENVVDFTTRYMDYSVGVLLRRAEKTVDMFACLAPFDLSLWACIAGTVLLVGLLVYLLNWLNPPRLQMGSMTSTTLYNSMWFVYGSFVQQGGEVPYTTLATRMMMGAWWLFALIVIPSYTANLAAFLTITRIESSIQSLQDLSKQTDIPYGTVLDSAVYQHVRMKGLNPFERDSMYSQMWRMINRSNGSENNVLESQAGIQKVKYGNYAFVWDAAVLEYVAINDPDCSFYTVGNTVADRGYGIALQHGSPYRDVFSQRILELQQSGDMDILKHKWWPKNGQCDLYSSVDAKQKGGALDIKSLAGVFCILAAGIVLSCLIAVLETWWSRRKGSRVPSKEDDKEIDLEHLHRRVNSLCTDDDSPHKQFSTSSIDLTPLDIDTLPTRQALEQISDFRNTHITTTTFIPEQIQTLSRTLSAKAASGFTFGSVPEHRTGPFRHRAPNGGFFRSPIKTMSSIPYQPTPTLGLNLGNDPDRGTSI

GluD1-WT = target: T2, GluD1-WT (Homo sapiens, UniProt Q9ULK0); assay: TEVC of constitutive current, Xenopus oocytes expressing GluD1-WT
T2 construct: expressed in transfected cells; host or cells: Xenopus laevis oocytes injected with cRNA
T2 sequence (Q9ULK0 21-1009): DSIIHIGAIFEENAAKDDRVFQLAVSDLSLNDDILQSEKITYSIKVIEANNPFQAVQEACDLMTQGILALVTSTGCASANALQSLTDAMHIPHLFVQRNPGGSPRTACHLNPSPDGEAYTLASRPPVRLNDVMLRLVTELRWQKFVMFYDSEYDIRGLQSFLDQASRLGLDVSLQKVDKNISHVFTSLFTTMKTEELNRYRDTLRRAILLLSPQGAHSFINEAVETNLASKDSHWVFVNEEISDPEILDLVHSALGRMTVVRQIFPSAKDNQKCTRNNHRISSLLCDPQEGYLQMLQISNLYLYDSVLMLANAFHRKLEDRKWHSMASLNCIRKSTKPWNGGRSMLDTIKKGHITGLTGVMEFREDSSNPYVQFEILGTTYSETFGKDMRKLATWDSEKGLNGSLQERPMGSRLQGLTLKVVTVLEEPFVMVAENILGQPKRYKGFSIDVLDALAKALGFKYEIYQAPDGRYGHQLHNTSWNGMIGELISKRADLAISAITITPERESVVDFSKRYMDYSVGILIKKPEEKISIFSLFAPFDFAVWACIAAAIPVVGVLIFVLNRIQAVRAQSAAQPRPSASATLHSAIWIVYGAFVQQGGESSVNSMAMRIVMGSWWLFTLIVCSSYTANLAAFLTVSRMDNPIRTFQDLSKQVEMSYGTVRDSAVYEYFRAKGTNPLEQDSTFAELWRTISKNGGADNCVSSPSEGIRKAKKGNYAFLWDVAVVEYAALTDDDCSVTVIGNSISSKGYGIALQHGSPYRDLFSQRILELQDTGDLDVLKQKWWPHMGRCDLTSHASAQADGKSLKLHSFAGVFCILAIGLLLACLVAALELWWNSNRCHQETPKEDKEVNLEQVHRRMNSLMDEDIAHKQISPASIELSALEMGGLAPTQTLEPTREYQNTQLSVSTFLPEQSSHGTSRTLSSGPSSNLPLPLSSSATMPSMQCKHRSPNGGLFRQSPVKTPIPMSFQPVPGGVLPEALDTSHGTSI

GluD1-S647F = target: T3, GluD1-S647F (Homo sapiens, UniProt Q9ULK0, S647F); assay: TEVC of constitutive current, Xenopus oocytes expressing GluD1-S647F
T3 construct: expressed in transfected cells; host or cells: Xenopus laevis oocytes injected with cRNA
T3 sequence (Q9ULK0 21-1009 S647F): T2 sequence (Q9ULK0 21-1009) with S627F

Row | D-Serine effect (Baseline −10 mM D-Serine) (GluD2-S646P; 10 mM D-serine) | D-Serine effect (Baseline −10 mM D-Serine) (GluD1-WT; 10 mM D-serine) | D-Serine effect (Baseline −10 mM D-Serine) (GluD1-S647F; 10 mM D-serine) | SMILES | Pentamidine effect (Baseline −100 μM Pentamidine) (GluD2-S646P; 100 μM pentamidine) | Pentamidine effect (Baseline −100 μM Pentamidine) (GluD1-WT; 100 μM pentamidine) | Pentamidine effect (Baseline −100 μM Pentamidine) (GluD1-S647F; 100 μM pentamidine)
1 | 5.2 ± 6.0 (11) nA | 2.3 ± 2.9 (13) nA | 14 ± 3.8 (10) nA | N[C@H](CO)C(=O)O [D-serine] |  |  | 
2 |  |  |  | N=C(N)c1ccc(OCCCCCOc2ccc(C(=N)N)cc2)cc1 [Pentamidine, pentamidine] | 6.5 ± 5.4 (11) nA | 37 ± 11 (14) nA | −47 ± 11 (10) nA
